Assay results published in patent publication US10959432B2, “Microbiocidal oxadiazole derivatives” (Syngenta Participations AG, priority 2016, dated 2021).

Assays:
Phakopsora pachyrhizi = assay: Fungicidal activity against Phakopsora pachyrhizi / soybean / leaf disc preventative (Asian soybean rust); assay type: in vivo; conditions: foliar, 200 ppm in the applied formulation, soybean leaf disks, preventative (inoculated one day after application), assessed 12 to 14 days after application, read-out: disease control compared to untreated control leaf disks
How it was run: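 Preventative test: compound applied to soybean leaf discs a day before spore inoculation of the lower surface. Discs kept at 20° C and 75% rh, first 24-36 h in darkness, then under 12 h light/day; disease control relative to untreated discs rated 12 to 14 days post-application.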

Uromyces viciae-fabae = assay: Fungicidal activity against Uromyces viciae-fabae / field bean / leaf disc preventative (faba-bean rust); assay type: in vivo; conditions: foliar, 288 h, 100 ppm in the applied formulation, field bean leaf discs, preventative (inoculated two hours after application), assessed 12 days after application, read-out: disease control compared to untreated control leaf discs
Description: Leaf disks or leaf segments of various plant species are cut from plants grown in a greenhouse. The cut leaf disks or segments are placed in multiwell plates (24-well format) onto water agar. The leaf disks are sprayed with a test solution before (preventative) or after (curative) inoculation. Compounds to be tested are prepared as DMSO solutions (max. 10 mg/ml) which are diluted to the appropriate concentration with 0.025% Tween20 just before spraying. The inoculated leaf disks or segments are incubated under defined conditions (temperature, relative humidity, light, etc.) according to the respective test system. A single evaluation of disease level is carried out 3 to 14 days after inoculation, depending on the pathosystem. Percent disease control relative to the untreated check leaf disks or segments is then calculated. General Examples of Liquid Culture Tests in Well Plates:
Example 5: Fungicidal Activity Against Uromyces viciae-fabae/Field Bean/Leaf Disc Preventative (Faba-Bean Rust)
Field bean leaf discs are placed on water agar in multiwell plates (96-well format) and 10 μl of the formulated test compound diluted in acetone and a spreader pipetted onto the leaf disc. Two hours after application leaf discs are inoculated by spraying a spore suspension on the lower leaf surface. The leaf discs are incubated in a climate cabinet at 22° C. with 18 hour day and 70% relative humidity. The activity of a compound is assessed as percent disease control compared to untreated when an appropriate level of disease damage appears in untreated check leaf disks (12 days after application).
The following compounds at 100 ppm in the applied formulation give at least 80% disease control in this test when compared to untreated control leaf discs under the same conditions, which show extensive disease development.

[1] = system: Glomerella laqenarium (Colletotrichum lagenarium); assay: Fungicidal activity against Glomerella lagenarium (Colletotrichum lagenarium) liquid culture / cucumber / preventative (anthracnose); assay type: cell-based; conditions: Colletotrichum orbiculare; 20 ppm in the applied formulation; liquid culture in PDB, 24° C., 3 to 4 days after application; read-out: disease control compared to untreated control (inhibition of growth measured photometrically)
How it was run: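 Test compound, applied from DMSO solution, is combined with PDB containing conidia taken from cryogenic storage. After 3–4 days at 24 °C, growth is measured photometrically and antifungal activity expressed as percent relative to untreated control.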

[2] = system: Puccinia recondita f. sp. tritici; assay: Fungicidal activity against Puccinia recondita f. sp. tritici / wheat / leaf disc preventative (brown rust); assay type: in vivo; conditions: foliar, 200 ppm in the applied formulation, wheat leaf segments cv. Kanzler, preventative (inoculated 1 day after application), assessed 7 to 9 days after application, read-out: disease control compared to untreated control leaf disks
How it was run: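 Preventative leaf-segment test: compound sprayed at 200 ppm onto wheat (cv. Kanzler) segments, brown rust spores applied 1 day after. Kept at 19C and 75% rh under 12 h light/dark cycles; disease control versus untreated check read 7 to 9 days post-application.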

[3] = system: Puccinia recondita f. sp. tritici; assay: Fungicidal activity against Puccinia recondita f. sp. tritici / wheat / leaf disc curative (brown rust); assay type: in vivo; conditions: foliar, 200 ppm in the applied formulation, wheat leaf segments cv. Kanzler, curative (applied 1 day after inoculation), assessed 6 to 8 days after application, read-out: disease control compared to untreated control leaf disks
How it was run: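 Curative test: compound, diluted from DMSO stock into water, applied one day after spore inoculation of wheat (cv. Kanzler) leaf segments kept on agar in darkness at 19° C. and 75% RH. Climate-cabinet incubation (19° C., 75% RH, 12 h photoperiod); disease control relative to untreated read 6–8 days post-application.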

O=C(NC1CC1c1ccccc1)c1ccc(-c2noc(C(F)(F)F)n2)cc1F (centres unmarked) [Compound 2b.7, 2-fluoro-N-(2-phenylcyclopropyl)-4-[5-(trifluoromethyl)-1,2,4-oxadiazol-3-yl]benzamide]
≥ 80%: pest or weed control at 200 ppm (Phakopsora pachyrhizi) | pest or weed control at 100 ppm (Uromyces viciae-fabae)

CCC(COC)NC(=O)c1ccc(-c2noc(C(F)(F)F)n2)cc1F (centres unmarked) [Compound 3b.11, 2-fluoro-N-[1-(methoxymethyl)propyl]-4-[5-(trifluoromethyl)-1,2,4-oxadiazol-3-yl]benzamide]
≥ 80%: inhibition at 20 ppm [1] | pest or weed control at 200 ppm (Phakopsora pachyrhizi) | pest or weed control at 200 ppm [2] | pest or weed control at 200 ppm [3]

O=C(NCCCCO)c1ccc(-c2noc(C(F)(F)F)n2)cc1 [Compound 3a.24, N-(4-hydroxybutyl)-4-[5-(trifluoromethyl)-1,2,4-oxadiazol-3-yl]benzamide]
≥ 80%: inhibition at 20 ppm [1] | pest or weed control at 200 ppm (Phakopsora pachyrhizi) | pest or weed control at 200 ppm [2] | pest or weed control at 200 ppm [3]

COCC(C)NC(=O)c1ccc(-c2noc(C(F)(F)F)n2)cc1F (centres unmarked) [Compound 3b.40, 2-fluoro-N-(2-methoxy-1-methyl-ethyl)-4-[5-(trifluoromethyl)-1,2,4-oxadiazol-3-yl]benzamide]
≥ 80%: inhibition at 20 ppm [1] | pest or weed control at 200 ppm (Phakopsora pachyrhizi) | pest or weed control at 200 ppm [2] | pest or weed control at 200 ppm [3]

CCN(CC)C(=O)c1ccc(-c2noc(C(F)(F)F)n2)cc1 [Compound 3a.30, N,N-diethyl-4-[5-(trifluoromethyl)-1,2,4-oxadiazol-3-yl]benzamide]
≥ 80%: inhibition at 20 ppm [1] | pest or weed control at 200 ppm (Phakopsora pachyrhizi) | pest or weed control at 200 ppm [2] | pest or weed control at 200 ppm [3]

O=C(Nc1nc(Br)n[nH]1)c1ccc(-c2noc(C(F)(F)F)n2)cc1 [Compound 5a.6, N-(3-bromo-1H-1,2,4-triazol-5-yl)-4-[5-(trifluoromethyl)-1,2,4-oxadiazol-3-yl]benzamide]
≥ 80%: inhibition at 20 ppm [1] | pest or weed control at 200 ppm (Phakopsora pachyrhizi) | pest or weed control at 200 ppm [2] | pest or weed control at 200 ppm [3]

CC(C)(C)NC(=O)c1ccc(-c2noc(C(F)(F)F)n2)cc1 [Compound 3a.32, N-tert-butyl-4-[5-(trifluoromethyl)-1,2,4-oxadiazol-3-yl]benzamide]
≥ 80%: inhibition at 20 ppm [1] | pest or weed control at 200 ppm (Phakopsora pachyrhizi) | pest or weed control at 200 ppm [2] | pest or weed control at 200 ppm [3]

C=C(C)CN(CC)C(=O)c1ccc(-c2noc(C(F)(F)F)n2)cc1 [Compound 3a.31, N-ethyl-N-(2-methylallyl)-4-[5-(trifluoromethyl)-1,2,4-oxadiazol-3-yl]benzamide]
≥ 80%: inhibition at 20 ppm [1] | pest or weed control at 200 ppm (Phakopsora pachyrhizi) | pest or weed control at 200 ppm [2] | pest or weed control at 200 ppm [3]

CC(C)CN(C)C(=O)c1ccc(-c2noc(C(F)(F)F)n2)cc1 [Compound 3a.13, N-isobutyl-N-methyl-4-[5-(trifluoromethyl)-1,2,4-oxadiazol-3-yl]benzamide]
≥ 80%: inhibition at 20 ppm [1] | pest or weed control at 200 ppm (Phakopsora pachyrhizi) | pest or weed control at 200 ppm [2] | pest or weed control at 200 ppm [3]

CC(C)OCCNC(=O)c1ccc(-c2noc(C(F)(F)F)n2)cc1 [Compound 3a.40, N-(2-isopropoxyethyl)-4-[5-(trifluoromethyl)-1,2,4-oxadiazol-3-yl]benzamide]
≥ 80%: inhibition at 20 ppm [1] | pest or weed control at 200 ppm (Phakopsora pachyrhizi) | pest or weed control at 200 ppm [2] | pest or weed control at 200 ppm [3]

O=C(NCCCCCO)c1ccc(-c2noc(C(F)(F)F)n2)cc1F [Compound 3b.22, 2-fluoro-N-(5-hydroxypentyl)-4-[5-(trifluoromethyl)-1,2,4-oxadiazol-3-yl]benzamide]
≥ 80%: inhibition at 20 ppm [1] | pest or weed control at 200 ppm (Phakopsora pachyrhizi) | pest or weed control at 200 ppm [2] | pest or weed control at 200 ppm [3]

CCN(C(=O)c1ccc(-c2noc(C(F)(F)F)n2)cc1)C(C)C [Compound 3a.34, N-ethyl-N-isopropyl-4-[5-(trifluoromethyl)-1,2,4-oxadiazol-3-yl]benzamide]
≥ 80%: inhibition at 20 ppm [1] | pest or weed control at 200 ppm (Phakopsora pachyrhizi) | pest or weed control at 200 ppm [2] | pest or weed control at 200 ppm [3]

CC(C)CCNC(=O)c1ccc(-c2noc(C(F)(F)F)n2)cc1 [Compound 3a.38, N-isopentyl-4-[5-(trifluoromethyl)-1,2,4-oxadiazol-3-yl]benzamide]
≥ 80%: inhibition at 20 ppm [1] | pest or weed control at 200 ppm (Phakopsora pachyrhizi) | pest or weed control at 200 ppm [2] | pest or weed control at 200 ppm [3]

CCC(O)CNC(=O)c1ccc(-c2noc(C(F)(F)F)n2)cc1F (centres unmarked) [Compound 3b.16, 2-fluoro-N-(2-hydroxybutyl)-4-[5-(trifluoromethyl)-1,2,4-oxadiazol-3-yl]benzamide]
≥ 80%: inhibition at 20 ppm [1] | pest or weed control at 200 ppm (Phakopsora pachyrhizi) | pest or weed control at 200 ppm [2] | pest or weed control at 200 ppm [3]

CC(C)N(C)C(=O)c1ccc(-c2noc(C(F)(F)F)n2)cc1F [Compound 3b.36, 2-fluoro-N-isopropyl-N-methyl-4-[5-(trifluoromethyl)-1,2,4-oxadiazol-3-yl]benzamide]
≥ 80%: inhibition at 20 ppm [1] | pest or weed control at 200 ppm (Phakopsora pachyrhizi) | pest or weed control at 200 ppm [2] | pest or weed control at 200 ppm [3]

CCOC(C)CNC(=O)c1ccc(-c2noc(C(F)(F)F)n2)cc1 (centres unmarked) [Compound 3a.11, N-(2-ethoxypropyl)-4-[5-(trifluoromethyl)-1,2,4-oxadiazol-3-yl]benzamide]
≥ 80%: inhibition at 20 ppm [1] | pest or weed control at 200 ppm (Phakopsora pachyrhizi) | pest or weed control at 200 ppm [2] | pest or weed control at 200 ppm [3]

C=CCN(CC)C(=O)c1ccc(-c2noc(C(F)(F)F)n2)cc1F [Compound 3b.30, N-allyl-N-ethyl-2-fluoro-4-[5-(trifluoromethyl)-1,2,4-oxadiazol-3-yl]benzamide]
≥ 80%: inhibition at 20 ppm [1] | pest or weed control at 200 ppm (Phakopsora pachyrhizi) | pest or weed control at 200 ppm [2] | pest or weed control at 200 ppm [3]

CN(C(=O)c1ccc(-c2noc(C(F)(F)F)n2)cc1)C(C)(C)C [Compound 3a.35, N-tert-butyl-N-methyl-4-[5-(trifluoromethyl) 1,2,4-oxadiazol-3-yl]benzamide]
≥ 80%: inhibition at 20 ppm [1] | pest or weed control at 200 ppm (Phakopsora pachyrhizi) | pest or weed control at 200 ppm [2] | pest or weed control at 200 ppm [3]

CC(C)CN(C)C(=O)c1ccc(-c2noc(C(F)(F)F)n2)cc1F [Compound 3b.14, 2-fluoro-N-isobutyl-N-methyl-4-[5-(trifluoromethyl)-1,2,4-oxadiazol-3-yl]benzamide]
≥ 80%: inhibition at 20 ppm [1] | pest or weed control at 200 ppm (Phakopsora pachyrhizi) | pest or weed control at 200 ppm [2] | pest or weed control at 200 ppm [3]

C#CCN(C)C(=O)c1ccc(-c2noc(C(F)(F)F)n2)cc1 [Compound 3a.41, N-methyl-N-prop-2-ynyl-4-[5-(trifluoromethyl)-1,2,4-oxadiazol-3-yl]benzamide]
≥ 80%: inhibition at 20 ppm [1] | pest or weed control at 200 ppm (Phakopsora pachyrhizi) | pest or weed control at 200 ppm [2] | pest or weed control at 200 ppm [3]

CCOCCCNC(=O)c1ccc(-c2noc(C(F)(F)F)n2)cc1F [Compound 3b.24, N-(3-ethoxypropyl)-2-fluoro-4-[5-(trifluoromethyl)-1,2,4-oxadiazol-3-yl]benzamide]
≥ 80%: inhibition at 20 ppm [1] | pest or weed control at 200 ppm (Phakopsora pachyrhizi) | pest or weed control at 200 ppm [2] | pest or weed control at 200 ppm [3]

O=C(Nc1nccnn1)c1ccc(-c2noc(C(F)(F)F)n2)cc1 [Compound 5a.8, N-(1,2,4-triazin-3-yl)-4-[5-(trifluoromethyl)-1,2,4-oxadiazol-3-yl]benzamide]
≥ 80%: inhibition at 20 ppm [1] | pest or weed control at 200 ppm (Phakopsora pachyrhizi) | pest or weed control at 200 ppm [2] | pest or weed control at 200 ppm [3]
